Values quoted from earlier work as cited in patent US12324827B2, “Combination therapy for the treatment of migraines” (The University of Chicago, priority 2019, dated 2025).

How the values were obtained:
spreading depression = details: SD from KCl; pretreatment; cited from earlier work
[1] = tested on: trigeminal system neurons; details: in vivo; cited from earlier work

Molecule | protection against SD over sham treatment (spreading depression) | CSD-based activation of Aδ fibers and C-fiber afferents in the trigeminal ganglion [1] | activation and sensitization of high threshold trigeminal system neurons after CSD [1] | direct inhibition of CSD [1] | wide dynamic range neurons of the caudal trigeminal nucleus [1]
CC1(C)O[C@@H]2[C@@H](CO[C@@]3(COS(N)(=O)=O)OC(C)(C)O[C@@H]23)O1 [topiramate, reference compound] | no more than a two-fold level of protection | – | – | – | –
TEV-48125: CGRP-mAb fremanezumab, humanized monoclonal anti-CGRP antibody | – | reduce CSD-based activation of Aδ fibers but not activation of C-fiber afferents | inhibited activation and sensitization | did not directly inhibit CSD | had no effect
